Data: US9303042B2, “Triazolothienopyrimidine compound inhibitors of urea transporters and methods of using inhibitors” (The Regents of the University of California, priority 2012, dated 2016)
Read-outs that look alike come from different tables or passages of the source.

What was measured:
mouse UT-B = target: T1, mouse UT-B (Mus musculus, UniProt Q8VHL0); assay: Stopped-flow light scattering assay of erythrocyte urea transport, mouse erythrocytes; assay type: cell-based
T1 construct: Screening was performed using mouse erythrocytes, which strongly express UT-B; endogenous in cells; host or cells: erythrocytes in whole blood of wild-type CD1 mice
T1 sequence (Q8VHL0 1-384): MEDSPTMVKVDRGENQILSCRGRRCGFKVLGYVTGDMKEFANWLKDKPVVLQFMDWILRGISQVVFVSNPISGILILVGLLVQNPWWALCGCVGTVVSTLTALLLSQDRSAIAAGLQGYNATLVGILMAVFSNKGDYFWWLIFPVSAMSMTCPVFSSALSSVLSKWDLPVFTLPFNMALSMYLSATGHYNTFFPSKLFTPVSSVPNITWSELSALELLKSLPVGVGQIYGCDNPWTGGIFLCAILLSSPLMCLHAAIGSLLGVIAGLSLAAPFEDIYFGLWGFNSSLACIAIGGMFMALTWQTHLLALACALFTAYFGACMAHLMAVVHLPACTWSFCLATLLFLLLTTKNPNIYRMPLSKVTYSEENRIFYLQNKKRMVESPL
Method: Erythrocyte urea and water permeabilities were measured by stopped-flow light scattering using a Hi-Tech Sf-51 instrument (Wiltshire, UK). For measurement of urea permeability, dilutions of whole blood (mouse or human) in PBS (hematocrit ˜0.5%) were incubated with test compounds for 5 min and then subjected to a 100-mM inwardly directed urea gradient. After an initial osmotic shrinking phase, the kinetics of increasing cell volume caused by urea influx was measured as the time-course of 90° scattered light intensity at 530 nm, with increasing cell volume producing reduced scattered light intensity. Urea permeability and percentage inhibition were computed as described (see, e.g., Levin et al., FASEB J. supra, 2007)). In some experiments, different urea gradients (25-200 mM) were used, or inhibitor was added only to the erythrocyte-containing or urea-containing solutions. In some experiments an outwardly directed urea gradient was used in which erythrocytes were incubated for 30 min with PBS containing specified urea and mixed in the stopped-flow apparatus with PBS. In reversibility experiments, erythrocytes were incubated for 30 min with inhibitor, washed three times to remove inhibitor, and urea transport assayed. Osmotic water permeability was measured using a 100 mM gradient of sucrose.
UT-B inhibition potency was assayed quantitatively by stopped-flow light scattering from the kinetics of urea influx in response to an inwardly directed urea gradient (see Materials and Methods above). Rapid mixing of an erythrocyte suspension with an equal volume of a hyperosmolar, urea-containing solution to give a 100 mM inwardly directly urea gradient produced rapid cell shrinking due to osmotic water efflux, followed by cell swelling as a consequence of urea (and water) influx.
Measurements were done using a Hi-Tech Sf-51 instrument (Wiltshire, UK). Whole blood (mouse or human) was diluted in PBS (hematocrit approximately 0.5%), incubated with inhibitor for 5 min and then subjected to a 100-mM inwardly directed urea gradient. The kinetics of increasing cell volume caused by urea influx was measured as the time-course of 90° scattered light intensity at 530 nm. Urea permeability and percentage inhibition were computed as described (see, e.g., Levin et al., supra 2007).

UT-A3 = target: T2, UT-A3 (Mus musculus, UniProt Q8R4T9); assay: Transepithelial urea transport in MDCK cells stably expressing UT-A3; assay type: cell-based; details: UTBinh-14 10 μM, forskolin
T2 construct: expressed in transfected cells
T2 sequence (Q8R4T9 1-461 isoform Q8R4T9-3): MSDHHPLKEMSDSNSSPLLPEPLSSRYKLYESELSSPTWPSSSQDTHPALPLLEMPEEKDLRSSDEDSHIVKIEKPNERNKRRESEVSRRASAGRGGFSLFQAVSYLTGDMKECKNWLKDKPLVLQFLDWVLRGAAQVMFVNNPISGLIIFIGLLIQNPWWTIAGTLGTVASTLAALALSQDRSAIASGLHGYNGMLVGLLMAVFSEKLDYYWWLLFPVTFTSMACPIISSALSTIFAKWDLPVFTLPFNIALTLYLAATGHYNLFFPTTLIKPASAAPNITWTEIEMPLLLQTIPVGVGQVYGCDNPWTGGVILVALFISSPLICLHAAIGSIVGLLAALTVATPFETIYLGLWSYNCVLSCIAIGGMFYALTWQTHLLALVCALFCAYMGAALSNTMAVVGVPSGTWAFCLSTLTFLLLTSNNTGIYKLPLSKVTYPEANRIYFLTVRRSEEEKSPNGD
Method: UT-B selectivity and cytotoxicity were studied. Because of sequence similarities between UT-B and UT-A isoforms, UT-A inhibition was measured. Transepithelial urea transport was measured in MDCK cells stably expressing UT-A1, UT-A3, and UT-B. UT-A1 and UT-A3 are cAMP-regulated urea transporters expressed in kidney tubule epithelia (see, e.g., Frohlich et al., Am. J. Physiol. Cell Physiol. 291:C600-606 (2006); Tickle et al., Am. J. Physiol. Regul. Integr. Comp Physiol 0.297: R323-329 (2009); Stewart et al., Am. J. Physiol. Renal Physiol. 292:F1157-63 (2006)). MDCK cells were cultured on collagen-coated porous filters for measurement of urea accumulation in the apical solution following addition of urea to the basolateral solution.
cDNAs encoding mouse UT-A3 and UT-B were cloned into pcDNA3.1 and used to generate stably transfected MDCK cell lines. MDCK cells stably expressing rat UT-A1 (MDCK-UT-A1) (see, e.g., Frohlich et al., supra) were obtained as described (see, e.g., Levin et al., FASEB J., supra). Cells were cultured in DMEM containing 10% FBS and 0.5 mg/mL G418. […] Urea flux in the basolateral-to-apical direction across unstimulated and forskolin-stimulated cell layers was measured in response to a 15-mM urea gradient. […]

## CCc1ccc(S(=O)(=O)c2nnn3c2nc(NCc2cccs2)c2sccc23)cc1 [UTBinh-14, [3-(4-Ethyl-benzenesulfonyl)-thieno[2,3-e][1,2,3]triazolo[1,5-a]pyrimidin-5-yl]-thiophen-2-ylmethylamine]
Mouse UT-B; 0 and 50 nM, urea gradient varied
  mechanism of UT-B inhibition vs urea: competitive
Mouse UT-B; 100 nM, mouse erythrocytes
  reduction of urea transport: approximately 75%
Mouse UT-B; 100 nM, washout
  reversibility of UT-B inhibition: reversible
Mouse UT-B; 1 μM
  inhibition at 1 µM: ~100%
Mouse UT-B; erythrocytes from UT-B knockout mice
  urea transport in UT-B null erythrocytes: did not inhibit
Mouse UT-B; erythrocytes pre-loaded with 100 mM urea, mixed with urea-free PBS, read-out: IC50 urea efflux
  IC50: 26.7 nM
Mouse UT-B; urea influx, 100 mM inwardly directed urea gradient, read-out: IC50 for mouse UT-B
  IC50: 25.1 nM
UT-A3
  inhibition of UT-A3 facilitated urea transport: little inhibition
